According to patent US20080009418A1, “Selective Inhibitors” (Alchemia LTD., priority 2004, published 2008):

Experiments:
[1] = biological target: T1, Human Melanocortin (MC3) (Homo sapiens, UniProt P41968); test: Radioligand binding, human melanocortin MC3 membranes, FlashPlate, [125I]-NDP-αMSH; settings: compound at 10 μM, [125I]-NDP-αMSH
T1 construct: purchased Perkin Elmer Biosignal
Method in brief: (§1)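 Cloned human receptor membranes were coated onto FlashPlate wells and incubated with radioligand and compound (added from a 0.5 mM DMSO daughter plate) for 1 hour at room temperature in the dark. Scintillation counting gave percent inhibition, with DMSO defining total and reference ligand defining non-specific binding.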

[2] = biological target: T2, Human neuropeptide Y (NPY-Y1) (Homo sapiens, UniProt P25929); test: Radioligand binding, human neuropeptide Y NPY-Y1 membranes, FlashPlate, [125I]-PYY; settings: compound at 10 μM, [125I]-PYY
T2 construct: purchased Perkin Elmer Biosignal
T2 sequence (P25929 1-384): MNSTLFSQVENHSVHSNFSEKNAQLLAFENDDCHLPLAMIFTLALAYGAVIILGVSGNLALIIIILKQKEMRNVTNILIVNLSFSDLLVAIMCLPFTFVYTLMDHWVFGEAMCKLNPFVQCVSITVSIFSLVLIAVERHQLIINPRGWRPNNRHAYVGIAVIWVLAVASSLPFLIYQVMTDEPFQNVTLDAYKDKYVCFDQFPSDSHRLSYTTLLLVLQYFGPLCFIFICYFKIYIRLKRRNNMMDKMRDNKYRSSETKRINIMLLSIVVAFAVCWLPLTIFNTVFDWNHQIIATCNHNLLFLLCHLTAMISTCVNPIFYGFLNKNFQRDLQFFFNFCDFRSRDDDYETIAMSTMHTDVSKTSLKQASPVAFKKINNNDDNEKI
Method in brief: as §1

[3] = biological target: T3, Human μ-opioid (MOP) (Homo sapiens, UniProt P35372); test: Radioligand binding, human μ-opioid (MOP) membranes, FlashPlate, [3H]-Naloxone; settings: compound at 10 μM, [3H]-Naloxone
T3 construct: purchased Perkin Elmer Biosignal
Method in brief: as §1

[4] = biological target: T4, Human neurokinin (NK1) (Homo sapiens, UniProt P25103); test: Radioligand binding, human neurokinin NK1 membranes, filtration, [125I]-Substance P; settings: compound at 10 μM, [125I]-Substance P
T4 construct: purchased Perkin Elmer Biosignal
Method in brief: (§2)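 Membranes from cloned human receptors were incubated with compound and radioligand for 1 hour at room temperature. Bound ligand was collected on 0.3% PEI-soaked filters, washed with cold 50 mM Tris-HCl pH 7.4, and counted by scintillation. Percent inhibition was computed against DMSO totals and reference-ligand nonspecific wells.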

[5] = biological target: T5, Human opioid (ORL1) (Homo sapiens, UniProt P41146); test: Radioligand binding, human opioid ORL1 membranes, FlashPlate, [125I]-Nociceptin; settings: compound at 10 μM, [125I]-Nociceptin
T5 construct: purchased Perkin Elmer Biosignal
Method in brief: as §1

[6] = biological target: T6, Human melanin-concentrating hormone (MCH1) (Homo sapiens, UniProt Q99705); test: Radioligand binding, human melanin-concentrating hormone MCH1 membranes, FlashPlate, [125I]-S36057; settings: compound at 10 μM; for A6: inhibition of radioligand binding, human melanin-concentrating hormone (MCH1): [125I]-S36057
T6 construct: purchased Perkin Elmer Biosignal
Method in brief: as §1

[7] = biological target: T7, Mouse urotensin (mUR2) (Mus musculus, UniProt Q8VIH9); test: Radioligand binding, mouse urotensin mUR2 membranes, FlashPlate, [125I]-Urotensin II; settings: compound at 10 μM, [125I]-Urotensin II
T7 construct: purchased Perkin Elmer Biosignal
T7 sequence (Q8VIH9 1-385): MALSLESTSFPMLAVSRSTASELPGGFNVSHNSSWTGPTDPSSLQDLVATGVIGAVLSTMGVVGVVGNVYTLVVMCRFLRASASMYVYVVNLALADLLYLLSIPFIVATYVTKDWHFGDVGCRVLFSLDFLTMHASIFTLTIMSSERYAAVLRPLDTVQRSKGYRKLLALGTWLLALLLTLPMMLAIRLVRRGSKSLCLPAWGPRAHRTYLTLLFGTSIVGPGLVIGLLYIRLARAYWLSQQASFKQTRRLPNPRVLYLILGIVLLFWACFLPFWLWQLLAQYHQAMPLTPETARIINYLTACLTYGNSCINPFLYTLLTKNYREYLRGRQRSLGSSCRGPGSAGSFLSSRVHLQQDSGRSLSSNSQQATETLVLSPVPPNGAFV
Method in brief: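 Cloned mouse urotensin (mUR2) receptor membranes from Perkin Elmer Biosignal were immobilized in FlashPlate microplates using a proprietary coating. Each well got 19.5 μl buffer, then 0.5 μl of DMSO, reference ligand, or compound. Adding 5 μl of [125I]-Urotensin II, diluted to 5× final concentration in binding buffer, started binding. Plates were sealed with TopSeal-A and incubated 1 hour at room temperature in the dark. Wells were counted for 30 seconds each on a TopCount after a 60-second delay, and percentage inhibition was calculated.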

[8] = biological target: T8, Human melanocortin (MC5) (Homo sapiens, UniProt P33032); test: Radioligand binding, human melanocortin MC5 membranes, FlashPlate, [125I]-NDP-αMSH; settings: compound at 10 μM, [125I]-NDP-αMSH
T8 construct: purchased Perkin Elmer Biosignal
Method in brief: as §1

[9] = biological target: T9, Human δ-opioid (DOP) (Homo sapiens, UniProt P41143); test: Radioligand binding, human δ-opioid (DOP) membranes, FlashPlate, [3H]-Bremazocine; settings: compound at 10 μM, [3H]-Bremazocine
T9 construct: purchased Perkin Elmer Biosignal
Method in brief: as §1

[10] = biological target: T10, Human κ-Opioid (KOP) (Homo sapiens, UniProt P41145); test: Radioligand binding, human κ-opioid (KOP) membranes, filtration, [3H]-Diprenorphine; settings: compound at 10 μM, [3H]-Diprenorphine
T10 construct: purchased Perkin Elmer Biosignal
Method in brief: as §2

[11] = biological target: T11, Human Melanocortin (MC4) (Homo sapiens, UniProt P32245); test: Radioligand binding, human melanocortin MC4 membranes, FlashPlate, [125I]-NDP-αMSH; settings: compound at 10 μM, [125I]-NDP-αMSH
T11 construct: purchased Perkin Elmer Biosignal
Method in brief: as §1

T5 sequence (P41146 whole entry): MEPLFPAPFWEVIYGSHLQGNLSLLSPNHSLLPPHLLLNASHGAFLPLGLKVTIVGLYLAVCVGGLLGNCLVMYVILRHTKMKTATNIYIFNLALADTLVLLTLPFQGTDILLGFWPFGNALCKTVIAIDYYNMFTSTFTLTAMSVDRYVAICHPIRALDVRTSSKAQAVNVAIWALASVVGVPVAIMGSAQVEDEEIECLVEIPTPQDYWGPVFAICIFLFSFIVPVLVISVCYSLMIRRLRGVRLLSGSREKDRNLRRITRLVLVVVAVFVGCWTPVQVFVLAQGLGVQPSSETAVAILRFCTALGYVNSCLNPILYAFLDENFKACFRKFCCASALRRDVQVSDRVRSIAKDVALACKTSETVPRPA
T1 sequence (P41968 whole entry): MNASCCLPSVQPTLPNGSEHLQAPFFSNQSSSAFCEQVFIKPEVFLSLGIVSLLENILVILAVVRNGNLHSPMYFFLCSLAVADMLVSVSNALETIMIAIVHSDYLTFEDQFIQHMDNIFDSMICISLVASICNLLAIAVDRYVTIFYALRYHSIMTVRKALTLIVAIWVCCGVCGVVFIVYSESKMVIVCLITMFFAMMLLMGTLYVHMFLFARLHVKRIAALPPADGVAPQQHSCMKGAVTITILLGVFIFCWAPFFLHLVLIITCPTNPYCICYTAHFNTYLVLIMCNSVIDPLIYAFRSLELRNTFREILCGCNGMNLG
T6 sequence (Q99705 whole entry): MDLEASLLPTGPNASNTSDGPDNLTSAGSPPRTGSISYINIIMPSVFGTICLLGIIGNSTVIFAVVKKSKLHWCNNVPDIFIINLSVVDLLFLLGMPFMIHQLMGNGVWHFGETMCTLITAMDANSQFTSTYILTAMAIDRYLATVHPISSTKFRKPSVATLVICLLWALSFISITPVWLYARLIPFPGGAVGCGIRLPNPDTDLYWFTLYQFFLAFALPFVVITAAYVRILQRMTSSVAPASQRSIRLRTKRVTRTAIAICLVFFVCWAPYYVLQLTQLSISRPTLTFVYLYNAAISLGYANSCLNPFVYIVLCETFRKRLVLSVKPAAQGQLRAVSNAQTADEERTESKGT
T11 sequence (P32245 whole entry): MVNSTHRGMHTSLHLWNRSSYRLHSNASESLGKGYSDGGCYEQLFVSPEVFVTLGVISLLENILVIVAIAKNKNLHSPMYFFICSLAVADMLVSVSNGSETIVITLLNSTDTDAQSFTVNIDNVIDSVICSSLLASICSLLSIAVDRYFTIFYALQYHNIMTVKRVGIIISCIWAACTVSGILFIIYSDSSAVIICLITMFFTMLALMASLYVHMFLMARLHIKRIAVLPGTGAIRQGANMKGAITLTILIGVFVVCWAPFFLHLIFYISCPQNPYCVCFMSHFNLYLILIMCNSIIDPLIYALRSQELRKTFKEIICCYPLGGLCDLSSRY
T8 sequence (P33032 whole entry): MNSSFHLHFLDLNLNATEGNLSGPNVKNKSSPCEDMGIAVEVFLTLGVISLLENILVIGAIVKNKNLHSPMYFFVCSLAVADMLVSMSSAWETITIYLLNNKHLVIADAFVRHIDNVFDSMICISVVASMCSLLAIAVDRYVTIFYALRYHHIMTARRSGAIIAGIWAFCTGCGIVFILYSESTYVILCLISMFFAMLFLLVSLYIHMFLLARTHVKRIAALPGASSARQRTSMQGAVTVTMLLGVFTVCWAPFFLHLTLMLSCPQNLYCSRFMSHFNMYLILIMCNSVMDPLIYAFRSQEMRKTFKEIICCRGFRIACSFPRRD
T10 sequence (P41145 whole entry): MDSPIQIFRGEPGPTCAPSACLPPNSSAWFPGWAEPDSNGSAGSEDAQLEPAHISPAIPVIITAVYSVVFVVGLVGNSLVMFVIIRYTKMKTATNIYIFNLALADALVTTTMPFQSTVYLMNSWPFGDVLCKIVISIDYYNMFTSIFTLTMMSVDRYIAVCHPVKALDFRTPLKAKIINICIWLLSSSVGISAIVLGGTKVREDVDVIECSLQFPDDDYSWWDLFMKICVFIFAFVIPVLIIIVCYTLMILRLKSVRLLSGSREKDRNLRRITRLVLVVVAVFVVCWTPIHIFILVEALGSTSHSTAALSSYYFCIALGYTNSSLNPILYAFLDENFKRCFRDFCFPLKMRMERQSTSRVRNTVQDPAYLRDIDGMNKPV
T3 sequence (P35372 whole entry): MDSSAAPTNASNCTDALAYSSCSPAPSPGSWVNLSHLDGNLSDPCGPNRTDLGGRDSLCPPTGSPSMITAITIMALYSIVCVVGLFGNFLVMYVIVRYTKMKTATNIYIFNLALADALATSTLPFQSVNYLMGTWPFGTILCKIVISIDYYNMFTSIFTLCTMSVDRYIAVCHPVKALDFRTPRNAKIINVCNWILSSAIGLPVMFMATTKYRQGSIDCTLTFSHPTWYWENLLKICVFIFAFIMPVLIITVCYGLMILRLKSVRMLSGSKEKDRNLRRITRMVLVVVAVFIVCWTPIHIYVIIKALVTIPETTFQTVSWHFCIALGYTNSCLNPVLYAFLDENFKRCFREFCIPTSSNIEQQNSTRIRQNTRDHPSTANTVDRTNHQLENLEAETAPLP
T9 sequence (P41143 whole entry): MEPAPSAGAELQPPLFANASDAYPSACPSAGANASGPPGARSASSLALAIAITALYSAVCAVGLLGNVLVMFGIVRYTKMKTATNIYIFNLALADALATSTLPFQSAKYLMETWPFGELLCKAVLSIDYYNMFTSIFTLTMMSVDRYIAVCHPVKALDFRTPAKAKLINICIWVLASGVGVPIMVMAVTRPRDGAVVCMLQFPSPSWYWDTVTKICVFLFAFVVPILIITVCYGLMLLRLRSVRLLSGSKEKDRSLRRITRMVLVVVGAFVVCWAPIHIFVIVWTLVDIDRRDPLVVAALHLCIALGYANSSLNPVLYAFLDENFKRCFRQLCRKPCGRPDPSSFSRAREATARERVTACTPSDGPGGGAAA
T4 sequence (P25103 whole entry): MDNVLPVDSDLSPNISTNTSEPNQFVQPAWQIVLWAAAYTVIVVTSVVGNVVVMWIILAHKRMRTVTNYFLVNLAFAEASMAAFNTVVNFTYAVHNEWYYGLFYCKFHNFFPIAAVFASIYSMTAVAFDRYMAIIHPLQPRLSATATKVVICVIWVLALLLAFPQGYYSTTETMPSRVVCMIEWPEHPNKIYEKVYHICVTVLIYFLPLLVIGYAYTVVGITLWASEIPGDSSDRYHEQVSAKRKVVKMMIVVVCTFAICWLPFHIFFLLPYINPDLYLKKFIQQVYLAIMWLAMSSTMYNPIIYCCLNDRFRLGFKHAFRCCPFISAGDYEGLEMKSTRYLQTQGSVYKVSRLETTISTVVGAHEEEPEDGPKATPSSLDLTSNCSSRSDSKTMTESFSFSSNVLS

Structure (SMILES) | A3: inhibition of radioligand binding, human melanocortin (MC3) [1] | A9: inhibition of radioligand binding, human neuropeptide Y (NPY-Y1) [2] | A7: inhibition of radioligand binding, human μ-opioid (MOP) [3] | A8: inhibition of radioligand binding, human neurokinin (NK1) [4] | A10: inhibition of radioligand binding, human opioid (ORL1) [5] | A6: inhibition of radioligand binding, human melanin-concentrating hormone (MCH1) [6] | A11: inhibition of radioligand binding, mouse urotensin (mUR2) [7] | A5: inhibition of radioligand binding, human melanocortin (MC5) [8] | A1: inhibition of radioligand binding, human δ-opioid (DOP) [9] | A2: inhibition of radioligand binding, human κ-opioid (KOP) [10] | A4: inhibition of radioligand binding, human melanocortin (MC4) [11] | A3: inhibition of radioligand binding, human melanocortin (MC3) ([1]; 10 µM) | A6: inhibition of radioligand binding, human melanin-concentrating hormone (MCH1) ([6]; 10 µM) | A5: inhibition of radioligand binding, human melanocortin (MC5) ([8]; 10 µM) | A4: inhibition of radioligand binding, human melanocortin (MC4) ([11]; 10 µM) | further results
CSC1OC(COCc2ccccc2)C(O)C(OCc2ccc3ccccc3c2)C1NC(=O)CNC(=N)N (stereo not shown) [compound 302] | − (“−” indicates less than 50% inhibition at 10 μM) | − (“−” indicates less than 50% inhibition at 10 μM) | − (“−” indicates less than 50% inhibition at 10 μM) | + (“+” indicates greater than 50% inhibition at 10 μM) | − (“−” indicates less than 50% inhibition at 10 μM) | − (“−” indicates less than 50% inhibition at 10 μM) | − (“−” indicates less than 50% inhibition at 10 μM) | + (“+” indicates greater than 50% inhibition at 10 μM) | − (“−” indicates less than 50% inhibition at 10 μM) | − (“−” indicates less than 50% inhibition at 10 μM) | + (“+” indicates greater than 50% inhibition at 10 μM) | – | – | – | – | –
COC[C@H]1OC(OCCc2ccccc2)[C@H](NC(=O)CCCN)[C@@H](OCc2ccc3ccccc3c2)[C@@H]1O (single isomer, unassigned) [compound 345] | – | − (“−” indicates less than 50% inhibition at 10 μM) | – | + (“+” indicates greater than 50% inhibition at 10 μM) | – | – | – | – | − (“−” indicates less than 50% inhibition at 10 μM) | – | – | − (“−” indicates less than 50% inhibition at 10 μM) | − (“−” indicates less than 50% inhibition at 10 μM) | − (“−” indicates less than 50% inhibition at 10 μM) | − (“−” indicates less than 50% inhibition at 10 μM) | A7: inhibition of radioligand binding, human μ-opioid (MOP) ([3]; 10 µM): − (“−” indicates less than 50% inhibition at 10 μM); A10: inhibition of radioligand binding, human opioid (ORL1) ([5]; 10 µM): − (“−” indicates less than 50% inhibition at 10 μM); A11: inhibition of radioligand binding, mouse urotensin (mUR2) ([7]; 10 µM): − (“−” indicates less than 50% inhibition at 10 μM); A2: inhibition of radioligand binding, human κ-opioid (KOP) ([10]; 10 µM): − (“−” indicates less than 50% inhibition at 10 μM)
N=C(N)NCC(=O)N[C@H]1C(OCc2ccc(Cl)cc2)O[C@H](COCc2ccccc2)[C@@H](O)[C@@H]1OCc1ccc(-c2ccccc2)cc1 (stereo partly shown) [compound 519] | – | − (“−” indicates less than 50% inhibition at 10 μM) | − (“−” indicates less than 50% inhibition at 10 μM) | + (“+” indicates greater than 50% inhibition at 10 μM) | − (“−” indicates less than 50% inhibition at 10 μM) | – | − (“−” indicates less than 50% inhibition at 10 μM) | – | − (“−” indicates less than 50% inhibition at 10 μM) | − (“−” indicates less than 50% inhibition at 10 μM) | – | + (“+” indicates greater than 50% inhibition at 10 μM) | + (“+” indicates greater than 50% inhibition at 10 μM) | + (“+” indicates greater than 50% inhibition at 10 μM) | + (“+” indicates greater than 50% inhibition at 10 μM) | –
CSC1OC(COCc2cccc(N)c2)C(O)C(OCc2ccccc2)C1NC(=O)c1c[nH]c2ccccc12 (stereo not shown) [compound 331] | − (“−” indicates less than 50% inhibition at 10 μM) | − (“−” indicates less than 50% inhibition at 10 μM) | − (“−” indicates less than 50% inhibition at 10 μM) | + (“+” indicates greater than 50% inhibition at 10 μM) | − (“−” indicates less than 50% inhibition at 10 μM) | − (“−” indicates less than 50% inhibition at 10 μM) | − (“−” indicates less than 50% inhibition at 10 μM) | − (“−” indicates less than 50% inhibition at 10 μM) | − (“−” indicates less than 50% inhibition at 10 μM) | − (“−” indicates less than 50% inhibition at 10 μM) | − (“−” indicates less than 50% inhibition at 10 μM) | – | – | – | – | –
COCC1OC(OCc2ccccc2)C(NC(=O)CN)C(OCc2ccc3ccccc3c2)C1O (stereo not shown) [compound 188] | – | – | – | – | – | – | – | – | – | – | – | – | – | – | – | A3: inhibition of radioligand binding ([1]; FlashPlate): − (“−” indicates less than 50% inhibition at 10 μM); A9: inhibition of radioligand binding ([2]; FlashPlate): − (“−” indicates less than 50% inhibition at 10 μM); A7: inhibition of radioligand binding ([3]; FlashPlate): − (“−” indicates less than 50% inhibition at 10 μM); A8: inhibition of radioligand binding ([4]; filtration): + (“+” indicates greater than 50% inhibition at 10 μM); A10: inhibition of radioligand binding ([5]; FlashPlate): − (“−” indicates less than 50% inhibition at 10 μM); A6: inhibition of radioligand binding ([6]; [125I]-S36057, FlashPlate): − (“−” indicates less than 50% inhibition at 10 μM); A11: inhibition of radioligand binding ([7]; FlashPlate): − (“−” indicates less than 50% inhibition at 10 μM); A5: inhibition of radioligand binding ([8]; FlashPlate): − (“−” indicates less than 50% inhibition at 10 μM); A1: inhibition of radioligand binding ([9]; FlashPlate): − (“−” indicates less than 50% inhibition at 10 μM); A2: inhibition of radioligand binding ([10]; filtration): − (“−” indicates less than 50% inhibition at 10 μM); A4: inhibition of radioligand binding ([11]; FlashPlate): − (“−” indicates less than 50% inhibition at 10 μM)
